Experimental data taken from PubChem BioAssay (NCI).
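Growth conditions: 96-well plates. Treatment: test compound, 48 hours, 5 concentrations. Analysis: linear interpolation between bracketing concentrations; unreached endpoints set to highest concentration. GI50 marks 50% less growth. Definition used: TGI = concentration required for complete inhibition of growth.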

What was measured:
Experiment in all cases: NCI anticancer screen, dose series, 48 h; in the data active = GI50 below about 0.43 µM; inactive = the rest
RXF 393 renal = system: RXF 393 renal
LOX IMVI melanoma = system: LOX IMVI melanoma
ACHN renal = system: ACHN renal
HS 578T breast = system: HS 578T breast
SN12C renal = system: SN12C renal
UO-31 renal = system: UO-31 renal
HT29 colon = system: HT29 colon
U251 CNS = system: U251 CNS
SK-MEL-2 melanoma = system: SK-MEL-2 melanoma
SNB-75 CNS = system: SNB-75 CNS
CCRF-CEM leukemia = system: CCRF-CEM leukemia
SF-295 CNS = system: SF-295 CNS
OVCAR-5 ovarian = system: OVCAR-5 ovarian
786-0 renal = system: 786-0 renal
SW-620 colon = system: SW-620 colon
EKVX NSCLC = system: EKVX NSCLC
NCI-H23 lung = system: NCI-H23 lung
CAKI-1 renal = system: CAKI-1 renal
MDA-MB-231 breast = system: MDA-MB-231 breast
OVCAR-8 ovarian = system: OVCAR-8 ovarian
NCI-H226 lung = system: NCI-H226 lung
A549 NSCLC = system: A549 NSCLC
COLO 205 colon = system: COLO 205 colon
SK-MEL-28 melanoma = system: SK-MEL-28 melanoma
NCI-H460 lung = system: NCI-H460 lung
MCF7 breast = system: MCF7 breast
HCT-116 colon = system: HCT-116 colon
MDA-MB-435 = system: MDA-MB-435
SR leukemia = system: SR leukemia
A498 renal = system: A498 renal
HCT-15 colon = system: HCT-15 colon
HOP-62 NSCLC = system: HOP-62 NSCLC
UACC-62 melanoma = system: UACC-62 melanoma
BT-549 breast = system: BT-549 breast
HL-60(TB) leukemia = system: HL-60(TB) leukemia
SNB-19 CNS = system: SNB-19 CNS
PC-3 prostate = system: PC-3 prostate
OVCAR-4 ovarian = system: OVCAR-4 ovarian
OVCAR-3 ovarian = system: OVCAR-3 ovarian
TK-10 renal = system: TK-10 renal
KM12 colon = system: KM12 colon
RPMI-8226 leukemia = system: RPMI-8226 leukemia
HOP-92 NSCLC = system: HOP-92 NSCLC
SK-OV-3 ovarian = system: SK-OV-3 ovarian
MDA-MB-468 breast = system: MDA-MB-468 breast
DU-145 prostate = system: DU-145 prostate
HCC-2998 colon = system: HCC-2998 colon
M14 melanoma = system: M14 melanoma
SF-539 CNS = system: SF-539 CNS
SF-268 CNS = system: SF-268 CNS
T-47D breast = system: T-47D breast
NCI/ADR-RES ovarian = system: NCI/ADR-RES ovarian
NCI-H522 lung = system: NCI-H522 lung
MOLT-4 leukemia = system: MOLT-4 leukemia
SK-MEL-5 melanoma = system: SK-MEL-5 melanoma
MALME-3M melanoma = system: MALME-3M melanoma
K-562 leukemia = system: K-562 leukemia
IGROV1 ovarian = system: IGROV1 ovarian
UACC-257 melanoma = system: UACC-257 melanoma

O=C(NO)c1ccc(CNC(=O)[C@H]2Cc3c([nH]c4ccccc34)[C@H](c3ccccc3)N2)cc1
6.54 µM: TGI (RXF 393 renal)
2.33 µM: TGI (MDA-MB-468 breast)
6.91 µM: TGI (HCC-2998 colon)
6.84 µM: TGI (OVCAR-5 ovarian)
13.5 µM: TGI (MDA-MB-435)
12.9 µM: TGI (U251 CNS)
6.43 µM: TGI (LOX IMVI melanoma)
5.93 µM: TGI (SK-MEL-5 melanoma)
15.2 µM: TGI (IGROV1 ovarian)
14.6 µM: TGI (SK-MEL-2 melanoma)
18.3 µM: TGI (NCI-H23 lung)
7.89 µM: TGI (SF-295 CNS)
11.7 µM: TGI (A498 renal)
13.1 µM: TGI (HOP-62 NSCLC)
5.64 µM: TGI (NCI-H522 lung)
18 µM: TGI (HT29 colon)
5.57 µM: TGI (COLO 205 colon)
7.76 µM: TGI (SW-620 colon)
> 23.7 µM: TGI (UO-31 renal) | TGI (SNB-75 CNS) | TGI (CCRF-CEM leukemia) | TGI (786-0 renal) | TGI (EKVX NSCLC) | TGI (OVCAR-8 ovarian) | TGI (NCI-H226 lung) | TGI (A549 NSCLC) | TGI (NCI-H460 lung) | TGI (MCF7 breast) | TGI (HCT-116 colon) | TGI (SR leukemia) | TGI (HCT-15 colon) | TGI (BT-549 breast) | TGI (HL-60(TB) leukemia) | TGI (SNB-19 CNS) | TGI (PC-3 prostate) | TGI (OVCAR-4 ovarian) | TGI (KM12 colon) | TGI (RPMI-8226 leukemia) | TGI (DU-145 prostate) | TGI (M14 melanoma) | TGI (SF-539 CNS) | TGI (SF-268 CNS) | TGI (NCI/ADR-RES ovarian) | TGI (MOLT-4 leukemia) | TGI (MALME-3M melanoma) | TGI (K-562 leukemia)
4.64 µM: TGI (UACC-62 melanoma)
16.6 µM: TGI (CAKI-1 renal)
15.9 µM: TGI (UACC-257 melanoma)
19.2 µM: TGI (TK-10 renal)
11.3 µM: TGI (SK-OV-3 ovarian)
22 µM: TGI (SK-MEL-28 melanoma)
inactive: GI50 (RXF 393 renal) 1.92 µM | GI50 (LOX IMVI melanoma) 3.35 µM | GI50 (ACHN renal) 5 µM | GI50 (HS 578T breast) 1.38 µM | GI50 (SN12C renal) 5.27 µM | GI50 (UO-31 renal) 5.58 µM | GI50 (HT29 colon) 3.29 µM | GI50 (U251 CNS) 2.78 µM | GI50 (SK-MEL-2 melanoma) 3.66 µM | GI50 (SNB-75 CNS) 1.99 µM | GI50 (CCRF-CEM leukemia) 0.785 µM | GI50 (SF-295 CNS) 3.34 µM | GI50 (OVCAR-5 ovarian) 1.42 µM | GI50 (786-0 renal) 9.15 µM | GI50 (SW-620 colon) 2.31 µM | GI50 (EKVX NSCLC) 8.42 µM | GI50 (NCI-H23 lung) 4.71 µM | GI50 (CAKI-1 renal) 5.69 µM | GI50 (MDA-MB-231 breast) 3.53 µM | GI50 (OVCAR-8 ovarian) 1.43 µM | GI50 (NCI-H226 lung) 2.7 µM | GI50 (A549 NSCLC) 6.77 µM | GI50 (COLO 205 colon) 2.36 µM | GI50 (SK-MEL-28 melanoma) 3.13 µM | GI50 (NCI-H460 lung) 3.59 µM | GI50 (MCF7 breast) 3.59 µM | GI50 (HCT-116 colon) 1.13 µM | GI50 (MDA-MB-435) 3.26 µM | GI50 (SR leukemia) 0.449 µM | GI50 (A498 renal) 2.46 µM | GI50 (HCT-15 colon) 11.8 µM | GI50 (HOP-62 NSCLC) 3.6 µM | GI50 (UACC-62 melanoma) 1.13 µM | GI50 (BT-549 breast) 14.2 µM | GI50 (HL-60(TB) leukemia) 3 µM | GI50 (SNB-19 CNS) 5.19 µM | GI50 (PC-3 prostate) 5.39 µM | GI50 (OVCAR-4 ovarian) 8.3 µM | GI50 (OVCAR-3 ovarian) 2.51 µM | GI50 (TK-10 renal) 2.88 µM | GI50 (KM12 colon) 5.01 µM | GI50 (RPMI-8226 leukemia) 1.35 µM | GI50 (HOP-92 NSCLC) 1.59 µM | GI50 (SK-OV-3 ovarian) 3.28 µM | GI50 (MDA-MB-468 breast) 0.507 µM | GI50 (DU-145 prostate) 4.06 µM | GI50 (HCC-2998 colon) 2.9 µM | GI50 (M14 melanoma) 5.93 µM | GI50 (SF-539 CNS) 3.73 µM | GI50 (SF-268 CNS) 5.5 µM | GI50 (T-47D breast) 1.03 µM | GI50 (NCI/ADR-RES ovarian) 5.72 µM | GI50 (NCI-H522 lung) 0.685 µM | GI50 (MOLT-4 leukemia) 0.763 µM | GI50 (SK-MEL-5 melanoma) 2.66 µM | GI50 (MALME-3M melanoma) 0.545 µM | GI50 (K-562 leukemia) 1.38 µM | GI50 (IGROV1 ovarian) 3.71 µM | GI50 (UACC-257 melanoma) 1.43 µM
9.84 µM: TGI (T-47D breast)
12.6 µM: TGI (OVCAR-3 ovarian)
16.2 µM: TGI (ACHN renal)
12.4 µM: TGI (MDA-MB-231 breast) | TGI (HOP-92 NSCLC)
23.5 µM: TGI (SN12C renal)
21.8 µM: TGI (HS 578T breast)
